According to patent US12279616B2, “Stabilization of dimpropyridaz suspensions by triethylammonium chloride” (BASF SE, priority 2019, dated 2025):

Assay: Water-solubility of dimpropyridaz
Format: physicochemical
Details: printed as at 20° C. ... at 25° C.
Protocol: Dimpropyridaz is a pesticide that has a water-solubility at 20° C. of approximately 4-5 wt % at 25° C. The water-solubility of dimpropyridaz is comparably high and so Ostwald-ripening represents a crucial issue for Dimpropyridaz suspension concentrates.

For `CCN(C(=O)c1cnn(C(C)C(C)C)c1C)c1ccnnc1` (racemic) [Dimpropyridaz, 1-[1,2-dimethylpropyl]-N-ethyl-5-methyl-N-pyridazin-4-yl-1H-pyrazole-4-carboxamide], which water-solubility is on record?
The water-solubility was 4-5 wt %.
